Laboratory results published in a melting point compilation (Tetko et al.; mined from patent text by program, amines drawn as free bases though some values may be those of a salt).

Structure (SMILES) | melting point [°C]
O=C(c1ccc(Cl)cc1)C1(Oc2ccc(Cl)cc2)CC1 | 69 to 71
CC(c1ccc(Cl)cc1)N1Cc2sc3ncn(CCN4CCN(c5cccc6ccccc56)CC4)c(=O)c3c2C1 (stereo unspecified) | 149
CCOC(=NC#N)N[C@@H]1c2cc(C#N)ccc2OC(C)(C)[C@H]1O (relative stereo) | 193 to 196
COC(=O)c1cnc(S)n1C1CCCC2CCCCC21 (stereo unspecified) | 84 to 86
CCCc1cccc2c(C=O)cc(OC)c(O)c12 | 128 to 129
CCOP(=O)(Cc1nnc2c(=O)[nH]c3ccc(C(F)(F)F)cc3n12)OCC | 204 to 208
Cc1nccn1-c1nc(-c2ccc(Cl)cc2)c(CCCN2C(=O)COC2=O)o1 | 152 to 153
COc1cccc(CNC(=O)c2nc3ccc(OCC(=O)c4ccccc4)cc3c(=O)[nH]2)c1 | 168 to 169
CCC1c2[nH]c3ccccc3c2CC(CO)N1C(=S)SC (stereo unspecified) | 170 to 172
COc1nc(-c2ccc(F)cc2)nc(-c2ccccn2)n1 | > 270
C(=C1CCN(C(c2ccccc2)(c2ccccc2)c2ccccc2)CC1)c1ccc(C2=NCCO2)cc1 | 74
CCc1noc(C)c1-c1[nH]c2ccccc2c1CC(N)=O | 194 to 195
Nc1nc2ncn([C@H]3C=C[C@@H](O)C3)c2c(=O)[nH]1 (racemic) | > 310
Cn1ncc(N2CCCCC2)c(-c2ccccc2C=NO)c1=O | 184 to 185
Cc1cc(CN(Cc2ccco2)c2sc(-c3ccc(C(F)(F)F)cc3)nc2C)ccc1OC(C)(C)C(=O)O | 80
CCC(CC)(CC(=O)Nc1cccc(OCc2ccc3ccc(Br)cc3n2)c1)C(=O)O | 175
NC1=NS(=O)(=O)c2sc(Cl)cc2N1 | > 361
COC1(OCCc2nc(C(C)C)c(Sc3cc(Cl)cc(Cl)c3)n2C)C2CC3CC(C2)CC1C3 (stereo unspecified) | 74.5 to 76
COC(=O)c1cccc(Oc2cccc(-c3nn(Cc4ccc(C(F)(F)P(=O)(O)O)c(Cl)c4)c(=Nc4ccc(Cl)c(Cl)c4)s3)c2)c1 | 137 to 139
CCOC(=O)C(=O)Nc1cccc(S(C)=O)c1C(N)=O (stereo unspecified) | 164 to 166
Cc1ccc2[nH]ncc2c1OCc1ccccc1 | 94 to 95
Cc1cc(-c2ccccc2)n2nc(SC(F)(F)F)nc2n1 | 91 to 93
O=S(=O)(NC1CCCCC1)c1ccc(Nc2nccc(Cl)n2)cc1 | 202 to 204
CC(C)(C)C(=O)c1c[nH]c2ncc(-c3ccc(S(N)(=O)=O)cc3)nc12 | 277 to 278
COCC(=O)Nc1nc2ccccc2s1 | 99 to 100
COc1cccc(Oc2cccc(-c3c(O)c4ccc(Cl)cc4[nH]c3=O)c2)c1 | 268 to 270

Structure (SMILES) | melting point [°C]
Cc1nc(Br)sc1C(=O)N[C@H](C)[C@](O)(Cn1cncn1)c1ccc(F)cc1F | 155 to 163
CCOC(=O)c1cn(C2CSC2)c2nc(Cl)c(F)cc2c1=O | 157 to 161
Nc1cc(N2CCNCC2)ccc1[N+](=O)[O-] | 159 to 160
O=C(NC(=O)c1c(F)cccc1F)Nc1ccc(OC(c2ccc(Cl)cc2)C2CC2)cc1 (stereo unspecified) | 185 to 188
C=CCNc1nc(NC(C)CC)c2scc(C)c2n1 (stereo unspecified) | 91 to 92
CC(=O)Nc1cc(F)c(OC(F)F)cc1[N+](=O)[O-] | 72 to 74
COc1nc(-n2cc(C(=O)O)c(=O)c3cc(F)c(N4CC(N)C4)c(Cl)c32)c(F)cc1F | 171 to 175
CSc1noc(-c2ccc(OCCCc3ccccc3)cc2)c1C#N | 99 to 100
CC1CCC2=NNC(=O)CC2C1 (stereo unspecified) | 116 to 118
CCCCCCCCOc1ccc(-c2ncc(O)cc2Cl)cc1 | 128 to 130
CS(=O)(=O)c1ccc(N2C=CC(N3CCCC3)C(=O)N2c2ccc(F)cc2)cc1 (stereo unspecified) | 192 to 195
CN1Cc2c(NC(=O)OCc3ccccc3)ncn2-c2ccccc2C1=O | 246 to 247
CCn1ncc2c(NCC3CCCCC3)c3cc(OCCN4CCOCC4)ccc3nc21 | 176 to 178
Cc1csc2ncc(C=O)n12 | 163 to 165
C#CCc1c(C)nc(N)[nH]c1=O | 245 to 249
CC(C)Cn1c(=O)n(C)c(=O)c2c(Sc3cccc(O)c3)n(Cc3cccc4ccccc34)cc21 | 150 to 151
CCOc1ccc2c(c1)n(C1CCCCC1)c(=O)n2Cc1ccc(N)cc1OC | 191
CCOC(=O)c1cn(C)cc(-c2ccccc2)c1=O | 107 to 108
CC(C)CNC(=O)c1ccc(C2(F)CC2c2ccc(Br)c(Br)c2)cc1 (stereo unspecified) | 132
Cc1ccnc2c1C(=NNC(=N)N)CC(c1cc(Cl)sc1Cl)C2 (stereo unspecified) | 250 to 251
COc1ccc2c(c1)cc(Cc1cc3ccccc3n1S(=O)(=O)c1ccccc1)n2S(=O)(=O)c1ccccc1 | 98 to 100
CCN(CCCC12CC3CC(CC(C3)C1)C2)C(=O)NCCCc1ccncc1 | 97.5 to 98.2
COC(=O)c1cccnc1C(=O)CC(=O)c1ccccc1 | 87
C[C@@]1(CO)CCC(=O)O1 | 44.5 to 46.5
COC(=O)c1cc(F)c2ncc(C(=O)NCc3ccc(Cl)cc3)c(O)c2c1 | 288 to 290
CC(C)(C)c1nc(-c2nnc(NC(=N)N)s2)nc(C(C)(C)C)c1O | 277

Structure (SMILES) | melting point [°C]
CC1(C)C=C(c2ccccc2)c2ccccc2N1 | 79.5 to 81
CN(C)c1ccc(C2(c3ccc(N(C)C)cc3N(C)C)OC(=O)c3ccc(N(C)C)cc32)cc1 (stereo unspecified) | 222 to 225
c1ccc2c(c1)C[C@@H]1CCc3ccccc3[C@@H]1O2 (relative stereo) | 71 to 72
COC1=CC2(C)CCc3c(OC)ccc(OC)c3C2=CC1=O (stereo unspecified) | 184 to 186
Cn1nc(-c2ccc(Cl)cc2F)cc1O | 204
CCOC(=O)c1nccc(C#N)c1N | 114 to 116
O=[N+]([O-])c1cc(C(O)CN2CCN(C(c3ccccc3)c3ccccc3)CC2)ccc1Cl (stereo unspecified) | 163
CCS(=O)CC(=O)c1ccc(-c2ccccc2F)cc1 (stereo unspecified) | 91 to 93
Fc1cccc(F)c1-c1ccc2ncccc2c1 | 112 to 113
CCC(=O)N1C(=O)C(=O)c2cc(F)ccc21 | 150 to 152
Oc1ccc2c(c1)C[C@H](O)[C@H](O)C2 (relative stereo) | 193 to 196
COc1ccc(CN(C)CC(=O)Nc2ccc([N+](=O)[O-])cc2)cc1OC | 120
N#Cc1cccc(Cn2cnc(C(N)=O)c2N)c1 | 246 to 247
CCOC(=O)C1=C(C)NC(C)=C(C(=O)OCC)C1c1cccc(Cl)c1 | 142 to 144
CCCn1c(=O)c2[nH]c(/C=C/c3ccc(OC)c(C)c3C)nc2n(CCC)c1=O | 271
Nc1ccc(CCc2n[nH]c3c2c(=O)n(-c2ccccc2)c2ncccc32)cc1 | > 310
COc1cc(COc2nn(CCO)cc2CO)ccc1OCc1nc(-c2ccco2)oc1C | 120 to 122
COc1ccc(N=C(Cl)c2ccc(OC)cc2)cc1 | 116
Cc1cc(Cc2ccc(NC(=O)NCCO)cc2)n(C)c1C(=O)c1ccc(Cl)cc1 | 210
Cc1ccc(CSCCCCCOc2ccc(C3=C(c4ccccc4)CCCc4cc(O)ccc43)cc2)cc1 | 165 to 169
O=C(OCc1ccccc1)C1CCCc2[nH]c3ccccc3c21 (stereo unspecified) | 108 to 112
Cc1cc(-c2cccc(NC(=O)N[C@@H]3c4cc(C#N)ccc4OC(C)(C)[C@H]3O)c2)on1 | 140 to 148
CC(C)(C)c1nc2ccc(Cl)nn2n1 | 128 to 130
COc1cc2[nH]ccc2cc1Br | 110 to 111
C=CCN(CC=C)c1nc(NC(=O)OCC(C)C)n2oc(=O)nc2n1 | 161 to 163
O=C(CCCCCl)c1cccc2cc3c(C(=O)CCCCCl)cccc3cc12 | 146 to 148

Structure (SMILES) | melting point [°C]
COc1c(Br)cc([N+](=O)[O-])cc1-c1c2ccccc2c(Br)c2sc(C)c(C)c12 | 204 to 205
O=C(C=C1CCCN1)c1cccs1 | 149 to 150
COC(=O)[C@@H]1COC(=O)N1c1nc(-c2ccc(Br)cc2)cs1 | 165 to 167
CN(C)C(=N)CCCCCCCCCCCCC(=N)N(C)C | 209
CCC1c2nc[nH]c2CCN1C(=O)NC (stereo unspecified) | 240
Cc1ccc(S(=O)(=O)N2CCCC2c2ccc(F)cc2)cc1Cl (racemic) | 134
COc1ccc(S(=O)(=O)C2(C(=O)O)CCN(CCCc3ccccc3)CC2)cc1 | 203
COc1ccc(-n2nc(O)c3[nH]c4cc(Cl)ccc4c(=O)c3c2=O)c(C)c1 | 354 to 356
NCCCCc1c[nH]c(-c2ccc(F)cc2)c1-c1ccncc1 | 185 to 187
CCCOc1cc(NC(=O)NC(C)C)ccn1 | 77 to 79
CNc1nc(Nc2ccc(Cl)c(CNS(C)(=O)=O)c2)ncc1[N+](=O)[O-] | 250
O=S(=O)(Nc1ccccc1)c1ccc(NC(=S)Nc2ccccc2)cc1 | 160 to 162
CC(=O)OCC1OC(OC2C(COC(C)=O)OC(O)(Br)C(OC(C)=O)C2OC(C)=O)C(OC(C)=O)C(OC(C)=O)C1OC(C)=O (stereo unspecified) | 97 to 99
CCC1(C)CCCNC1=O (stereo unspecified) | 67 to 69
Cc1cc(S(=O)(=O)N2c3ccccc3-c3ccccc3C2C)ccc1O (stereo unspecified) | 186 to 188
CCCc1nc(S)nc(O)c1Cc1ccc(-c2ccccc2C#N)cc1 | 191
COc1cc(OCCCN2CCOCC2)c(C=CC(=O)c2ccc(S(N)(=O)=O)cc2)cc1-c1cccs1 | 193 to 196
CC1(C)Oc2ccc3nc(C(N)=O)ccc3c2C(NCCc2ccccc2)C1O (stereo unspecified) | 197 to 199
CCCCNC(=O)NS(=O)(=O)c1cc(I)ccc1C(=O)OC | 128 to 130
Nc1nc2c(s1)CC(CN1CC=C(c3ccccc3)CC1)CC2 (stereo unspecified) | 187 to 190
N#CC=C1CCN(c2ccc(N3C[C@H](CNC(=O)C(Cl)Cl)OC3=O)cc2F)CC1 | 159 to 161
COc1cc(C=C(C(=O)NC2CCC(C)CC2)c2ccccc2)ccc1OC(C)=O (stereo unspecified) | 136 to 140
CCCCCCCCCCCC#Cc1ccccc1C=CP(=O)(O)O | 82 to 83
